Experimental data as given in paper PMC5465288, “[^68Ga]/[^188Re] Complexed [CDTMP] Trans-1,2-Cyclohexyldinitrilotetraphosphonic Acid As a Theranostic Agent for Skeletal Metastases” (Frontiers in Medicine, 2017).

Experiment: HAp (hydroxyapatite) binding study
Conditions: 20 mg synthetic HAp in 1 mL saline, 10 min incubation at ambient temperature
Protocol: To evaluate HAp binding, 20 mg of synthetic HAp was allowed to incubate in 1 mL of isotonic saline for 24 h. Labeled complex in a volume of 50 µL was then added, subjected to vortex for 10 s and incubated at ambient temperature for 10 min. After incubation, samples had been centrifuged, and the supernatant was removed. Hap fraction was washed twice with 0.5 mL saline, and all the washes were collected. Radioactivity was then checked in combined liquids and HAp fraction using gamma counter.

In the case of “[^68Ga]-trans-1,2-cyclohexyldinitrilo tetramethylene phosphonic acid [[^68Ga]-CDTMP]”, the “binding to HAp” value was 89 ± 3%.
